Assays:
[1] = system: Staphylococcus epidermidis ATCC 14990
[2] = system: Ralstonia solanacearum strain Pss4; details: Rs Pss4; optimal minimal medium, crude peptides (Table 9)
[3] = system: Staphylococcus aureus BCRC 10777
[4] = system: bacteria, fungal spores, and fungal mycelia; format: cell-based; details: SYTOX Green, crude peptides, room temperature in dark for 2 h
[5] = system: Agrobacterium tumefaciens strain Atu C58C1
in vitro = format: cell-based; details: human, HEK293 cells
Experimental: PepD3 was dissolved in water and filtered through a 0.2-μm filter. The peptide concentration was quantitated by UV280 to make a stock solution of 5120 μg/mL. The pepD3 stock solution was serially diluted in the serum-free DMEM. […] The serum-free DMEM medium without peptide was used as negative control. Cell viability was assessed using the Cell Titer 96 Aqueous One Solution Cell Proliferation Assay (Promega), in accordance with the manufacturer's instructions. The absorbance was measured with an Infinite M1000 pro (Tecan) at a wavelength of 490 nm. Data were normalized to the negative control to obtain the percentage of cell viability.

[6] = system: Xanthomonas campestris pv. campestris strain Xcc17; test: MIC and MBC by serial dilution in 96-well plate; format: cell-based; details: Xcc Xcc17; Table 7
Experimental: (§1) The effect of peptide length on the antimicrobial activity was investigated by deciding the minimal inhibitory concentration (MIC) and minimal bactericidal concentration (MBC) for each peptide against the pathogen with the media and growth conditions of phytopathogenic bacteria and E. coli as described in Table 1. Single bacterial colony grown on an optimal rich agar medium was picked, and each grew in 3 mL of the same rich liquid medium for 4 to 6 h.
(§2) For experiments carried out in the rich medium, the bacterial broth culture was then diluted in the same medium to give a final concentration of OD600=0.08, and then further diluted 100 folds in the same medium.
(§3) For experiments carried out in the minimal medium, the bacterial cells were collected from the bacterial liquid culture by centrifugation, re-suspended in an optimal minimal medium to give a final concentration of OD600=0.08, and then further diluted 100 folds in the same minimal medium.
(§4) Fifty microliters of serially diluted peptides (2-fold the final concentration) were added in a 96-well polystyrene plate with 50 μL of the bacterial culture. The final concentrations of peptides were 0, 2, 4, 8, 16 and 32 μg/mL. The plates were incubated at an optimal temperature without shaking.
(§5) MBC was determined as the lowest peptide concentration at which no colonies formed.

[7] = system: Xanthomonas euvesicatoria strain Xvt28; test: MIC and MBC by serial dilution in 96-well plate; format: cell-based; details: Xev Xvt28; Table 7
Experimental: as §1, §2, §3, §4, §5

[8] = system: Pseudomonas syringae pv. syringae strain B728a; details: Pss B728a; Table 7
Botrytis cinerea = format: cell-based; details: Bc; optimal minimal medium, crude peptides (Table 9)
red blood cells = format: cell-based, rat
Experimental: Further, the hemolytic activity of the antimicrobial peptides was tested. EDTA-treated rat whole blood was centrifuged at 840×g for 3 minutes at 4° C. to separate blood cells and plasma. The plasma was removed, and the blood cells were washed three times with PBS having the same volume as the original blood volume by gently turning the centrifuge tube upside down. After washing, ten microliters of blood cells were diluted in PBS 2000 times to count the cells. Finally, red blood cells were diluted to 5×10^8 cells/mL in PBS. Peptides were dissolved in water and filtered through a 0.2-μm filter to make a stock solution. The peptide concentration was quantitated by UV280. The peptide solution was diluted in PBS to different concentrations (5 times of tested concentration). Twenty microliters of peptide in PBS were mixed with 80 μL of red blood cell solution in a 96-well plate (V-bottom). […] The concentration of heme contained in each well was measured by UV405 using Infinite M1000 pro (Tecan). The hemolytic activity was calculated using the following formula: Hemolytic activity=[(F−F0)/(Ft−F0)]×100% • F is UV405 of the peptide-treated sample; • F0 is UV405 of sample without peptide (negative control); • Ft is UV405 of the Triton-treated sample (positive control).

Cgl FST02 = format: cell-based, Colletotricum gloeosporioides; details: Cgl FST02; optimal minimal medium, crude peptides (Table 9)
[9] = system: Ralstonia solanacearum strain Pss190; details: Rs Pss190; optimal minimal medium, crude peptides (Table 9)
[10] = system: Pseudomonas aeruginosa ATCC 9027; details: ATCC 9027
Eco DH5α = test: MIC and MBC by serial dilution in 96-well plate; format: cell-based, Escherichia coli; details: Table 7
How it was run: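 Log-phase bacteria in rich or minimal medium were adjusted to OD600=0.08, diluted 100-fold, and mixed 1:1 with 2-fold serial peptide dilutions (final 0–32 μg/mL). Plates were incubated at the optimal temperature without shaking. MBC is the lowest peptide concentration yielding no colonies.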

[11] = system: Klebsiella pneumonia NTUH-K2044
[12] = system: Pseudomonas syringae pv. tomato strain DC3000

With Ac-WKKLKKLLKKL-NH2 [pepD3] the MBC [1] was 32 µg/mL, the MIC [1] was 16 µg/mL and the MBC/MFC [2] was “— (“—” indicates no antimicrobial activity being detected at the highest peptide concentration (32 μg/mL) tested in this study.)”. The MIC [2] was “— (“—” indicates no antimicrobial activity being detected at the highest peptide concentration (32 μg/mL) tested in this study.)”, the MBC [3] was 32 µg/mL and the MIC [3] was 16 µg/mL. For the same substance, the “membranolytic effect on the cell walls of bacteria, fungal spores, and fungal mycelia” value [4] was “significant membranolytic effect”, the MBC [5] was 2.4 µg/mL and the viability at 1 h, 32 µg/mL (in vitro) was greater than 91%. The MBC [6] was 2.0 µg/mL, the MIC [6] was 2.0 µg/mL and the MBC [7] was 3.0 µg/mL. The MIC [7] was 3.0 µg/mL, the MBC [8] was 16.0 µg/mL and the MIC [8] was 10.0 µg/mL. For the same substance, the MBC/MFC (Botrytis cinerea) was “— (“—” indicates no antimicrobial activity being detected at the highest peptide concentration (32 μg/mL) tested in this study.)”, the MIC (Botrytis cinerea) was “— (“—” indicates no antimicrobial activity being detected at the highest peptide concentration (32 μg/mL) tested in this study.)” and the hemolytic activity (red blood cells) was “very little or non-hemolytic activity”. The MBC/MFC (Cgl FST02) was “— (“—” indicates no antimicrobial activity being detected at the highest peptide concentration (32 μg/mL) tested in this study.)”, the MIC (Cgl FST02) was “— (“—” indicates no antimicrobial activity being detected at the highest peptide concentration (32 μg/mL) tested in this study.)” and the MBC/MFC [9] was “— (“—” indicates no antimicrobial activity being detected at the highest peptide concentration (32 μg/mL) tested in this study.)”. The MIC [9] was “— (“—” indicates no antimicrobial activity being detected at the highest peptide concentration (32 μg/mL) tested in this study.)”, the MBC [10] was 8 µg/mL and the MIC [10] was 4 µg/mL. It also gave an MBC (Eco DH5α) of 13.5 µg/mL, an MIC (Eco DH5α) of 10.5 µg/mL and an MBC [11] of 16 µg/mL. For the same substance, the MIC [11] was 16 µg/mL, the MBC [12] was 17.3 µg/mL and the MIC [12] was 9.3 µg/mL.

Reference: US20240101602A1, “ANTIMICROBIAL PEPTIDES AND METHOD OF PREVENTING OR TREATING INFECTION BY USING THE SAME” (priority 2020, published 2024)
